Measurements taken from ChEMBL document CHEMBL3232935, “Design, synthesis and evaluation of 1,2,3-triazole-adamantylacetamide hybrids as potent inhibitors of Mycobacterium tuberculosis” (Bioorg Med Chem Lett, 2014).
≈ marks a conversion by molar mass, not a printed value.

Assays:
[1] = Lipophilicity, log P of the compound; assay type: physicochemical; conditions: octanol/water
[2] = test system: Mycobacterium tuberculosis; assay: microbe, parasite or virus in culture; assay type: functional; conditions: H37Rv ATCC 27294, 672 h
Description: Antitubercular activity against Mycobacterium tuberculosis H37Rv ATCC 27294 after 28 days by agar dilution method

[3] = Cytotoxicity against HEK293T cells at 50 ug/ml after 72 hrs by MTT assay; assay type: cell-based, HEK-293T; conditions: human, read-out: INH
[4] = Selectivity index, ratio of cytotoxicity against HEK293T cells to antitubercular activity against Mycobacterium tuberculosis H37Rv ATCC 27294; assay type: toxicity, cell-based, HEK-293T; conditions: human, read-out: Selectivity Index

## CCCCc1cn(CC(=O)NC23CC4CC(CC(C4)C2)C3)nn1
[1]
  logP: 2.68
[2]
  MIC: 50 µg/mL (≈ 158 µM)

## CCCCCc1cn(CC(=O)NC23CC4CC(CC(C4)C2)C3)nn1
[1]
  logP: 3.1
[2]
  MIC: 50 µg/mL (≈ 151 µM)

## CCCCCCc1cn(CC(=O)NC23CC4CC(CC(C4)C2)C3)nn1
[1]
  logP: 3.52
[2]
  MIC: 50 µg/mL (≈ 145 µM)

## O=C(Cn1cc(CCCO)nn1)NC12CC3CC(CC(C3)C1)C2
[1]
  logP: 0.61
[3]
  cytotoxicity at 72 h, 50 ug/ml: 20.7%
[2]
  MIC: 6.25 µg/mL (≈ 19.6 µM)
[4]
  selectivity ratio: > 15

## O=C(Cn1cc(CCc2ccccc2)nn1)NC12CC3CC(CC(C3)C1)C2
[1]
  logP: 3.03
[2]
  MIC: 50 µg/mL (≈ 137 µM)

## O=C(Cn1cc(C2(O)CCCC2)nn1)NC12CC3CC(CC(C3)C1)C2
[1]
  logP: 1.51
[2]
  MIC: 50 µg/mL (≈ 145 µM)

## O=C(Cn1cc(C2(O)CCCCC2)nn1)NC12CC3CC(CC(C3)C1)C2
[1]
  logP: 1.93
[3]
  cytotoxicity at 72 h, 50 ug/ml: 17.5%
[2]
  MIC: 6.25 µg/mL (≈ 17.4 µM)
[4]
  selectivity ratio: > 15

## O=C(Cn1cc(-c2ccccc2)nn1)NC12CC3CC(CC(C3)C1)C2
[1]
  logP: 2.75
[2]
  MIC: 50 µg/mL (≈ 149 µM)

## CC(C)(C)c1ccc(-c2cn(CC(=O)NC34CC5CC(CC(C5)C3)C4)nn2)cc1
[1]
  logP: 4.46
[2]
  MIC: 50 µg/mL (≈ 127 µM)

## COc1cccc(-c2cn(CC(=O)NC34CC5CC(CC(C5)C3)C4)nn2)c1
[1]
  logP: 2.63
[2]
  MIC: 25 µg/mL (≈ 68.2 µM)

## COc1ccc(-c2cn(CC(=O)NC34CC5CC(CC(C5)C3)C4)nn2)c(C)c1
[1]
  logP: 3.12
[2]
  MIC: 50 µg/mL (≈ 131 µM)

## O=C(Cn1cc(-c2ccc([N+](=O)[O-])cc2)nn1)NC12CC3CC(CC(C3)C1)C2
[2]
  MIC: 50 µg/mL (≈ 131 µM)

## O=C(Cn1cc(-c2ccc(F)cc2F)nn1)NC12CC3CC(CC(C3)C1)C2
[1]
  logP: 3.07
[2]
  MIC: 50 µg/mL (≈ 134 µM)

## O=C(Cn1cc(-c2ccc(F)c(F)c2)nn1)NC12CC3CC(CC(C3)C1)C2
[1]
  logP: 3.07
[2]
  MIC: 50 µg/mL (≈ 134 µM)

## O=C(Cn1cc(-c2ccc(C(F)(F)F)cc2)nn1)NC12CC3CC(CC(C3)C1)C2
[1]
  logP: 3.68
[2]
  MIC: 50 µg/mL (≈ 124 µM)

## O=C(Cn1cc(-c2ccc(Cl)c(Cl)c2)nn1)NC12CC3CC(CC(C3)C1)C2
[1]
  logP: 3.87
[2]
  MIC: 50 µg/mL (≈ 123 µM)

## CCCCCc1ccc(-c2cn(CC(=O)NC34CC5CC(CC(C5)C3)C4)nn2)cc1
[1]
  logP: 4.91
[3]
  cytotoxicity at 72 h, 50 ug/ml: 18.7%
[2]
  MIC: 6.25 µg/mL (≈ 15.4 µM)
[4]
  selectivity ratio: > 15

## CC(=O)c1ccc(C)cc1OCc1cn(CC(=O)NC23CC4CC(CC(C4)C2)C3)nn1
[1]
  logP: 2.55
[2]
  MIC: 50 µg/mL (≈ 118 µM)

## COc1ccc2cc(-c3cn(CC(=O)NC45CC6CC(CC(C6)C4)C5)nn3)ccc2c1
[1]
  logP: 3.63
[2]
  MIC: 50 µg/mL (≈ 120 µM)

## O=C(Cn1cc(-c2cc3ccccc3c3ccccc23)nn1)NC12CC3CC(CC(C3)C1)C2
[1]
  logP: 4.75
[3]
  cytotoxicity at 72 h, 50 ug/ml: 20.1%
[2]
  MIC: 3.12 µg/mL (≈ 7.15 µM)
[4]
  selectivity ratio: > 15

## O=C(Cn1cc(-c2ccsc2)nn1)NC12CC3CC(CC(C3)C1)C2
[1]
  logP: 2.74
[2]
  MIC: 50 µg/mL (≈ 146 µM)

## CC[C@@H](CO)NCCN[C@@H](CC)CO [ETHAMBUTOL]
[2]
  MIC: 3.13 µg/mL (≈ 15.3 µM)

## NNC(=O)c1ccncc1 [ISONIAZID]
[2]
  MIC: 0.1 µg/mL (≈ 0.729 µM)

## NC(=O)c1cnccn1 [PYRAZINAMIDE]
[2]
  MIC: 50 µg/mL (≈ 406 µM)
